According to patent US20140322242A1, “MATERIALS AND METHODS FOR THE PREVENTION AND TREATMENT OF CANCER” (Icahn School of Medicine at Mount Sinai, priority 2010, published 2014):

Columns and labels:
[1] = system: PC-3luc cells; assay: Xenogeneic orthotopic PC-3luc prostate tumor model in nude mice (bioluminescence, immunofluorescence); type: in vivo, Balb/c nu/nu mice; conditions: for distant metastases / carbachol-induced lymph node invasion: antagonist in combination with carbachol
Description: The microenvironment of a developing tumor is important in cancer development and metastasis. A xenogeneic orthotopic model of prostate cancer was established to provide a minimally disruptive microenvironment for this cancer in live mice.
In vivo and ex vivo bioluminescence imaging was performed and analyzed using an IVIS imaging system 200 series (Xenogen, Caliper Life Sciences, Hopkinton, Mass.). Bioluminescent signal was induced by i.p. injection of D-luciferin (150 mg/kg in PBS) 8 minutes prior to in vivo imaging. For ex vivo imaging, D-luciferin (300 mg/kg) was injected 7 minutes prior to necropsy. Organs of interest were immersed in a solution of D-luciferin at 150 mg/ml.
(§1) Upon sacrifice, mouse prostate tissues were immersed in OCT medium (Tissue Teck®). Five-micrometer frozen sections were stained with hematoxylin-eosin (H&E). For immunofluorescence, unstained prostate sections were fixed with acetone or methanol. For staining of nerves, fixed sections were incubated in H2O2 to quench endogenous peroxidase and non-specific binding was blocked with goat serum in bovine serum albumin (BSA) solution and the avidin/biotin blocking kit (Vector Laboratories, Burlingame, Calif.). Sections were incubated with a rabbit anti-TH antibody (Millipore, Billerica, Mass.), or anti-VAChT antibody (Phoenix Pharmaceuticals, Inc., Burlingame, Calif.), or anti-NF-L antibody (Millipore), or anti-NF-H antibody (Abcam, Cambridge, Mass.) and then with a secondary biotinylated goat anti-rabbit antibody (Vector Laboratories). Signal was amplified using the Vectastain Elite ABC Kit (Vector Laboratories) and visualized using the Tyramide Signal Amplification kit for TRITC (PerkinElmer, Boston, Mass.).
(§2) For proliferative cell quantification, sections were incubated with a rabbit polyclonal anti-Ki67 (Abcam) and then Alexafluor 568-conjugated goat anti-rabbit antibody (Molecular Probes, Carlsbad, Calif.).
(§3) Human tumors were induced by orthotopic surgical implantations of 1×10^5 PC-3luc cells into six- to eight-week-old Balb/c nu/nu mice. Ten days after cell injection (day 0), the animals were randomized into the different groups and received the appropriate drugs, as indicated. 6OHDA or vehicle was injected at day 0 (100 mg/kg) and day 2 (250 mg/kg), and human recombinant G-CSF treatment was begun on day 4 (Amgen, 250 μg/kg/day, every 12 hours, 8 divided doses, i.p., in 5% dextrose). A second cycle was administered eight weeks after graft and animals were sacrificed three weeks after the last injection of G-CSF (i.e., 11 weeks after graft). In other experiments, 2×10^5 PC-3luc cells were orthotopically injected into nu/nu Adrβ2^tm1Bkk/J+/+ Adrβ3^tm1Lowl/J+/+, nu/nu Adrβ2^tm1Bkk/J−/−, nu/nu Adrβ3^tm1Lowl/J−/− and nu/nu Adrβ2^tm1Bkk/J−/− Adrβ3^tm1Lowl/J−/−. In selected experiments, 2×10^6 LNCaP-luc cells were injected in nu/nu Adrβ2^tm1Bkk/J+/+ Adrβ3^tm1Lowl/J+/+ and nu/nu Adrβ2^tm1Bkk/J−/− Adrβ3^tm1Lowl/J−/− mice. For the transgenic model, one-, two- or five-month-old c-Myc mice were injected with 6OHDA or surgically sympathectomized according to protocols described above and sacrificed 30 days later.
A second cycle was administered at week four and mice were sacrificed one week later (five weeks after graft). For cholinergic experiments using the nu/nu Chrm1^tm1Stl+/+ and nu/nu Chrm1^tm1Stl−/− animals, mice were sacrificed at week six post-graft. For the survival study, grafted mice were treated as described hereinabove from week 4, every two weeks for up to 25 weeks or until death. Disease progression was monitored by bioluminescence scanner. […] One week later, mice received a second round of treatment and were then sacrificed at month four.

[2] = system: prostate cancer in cMyc mice; assay: cMyc transgenic mouse model of prostate cancer (mPIN, invasive cancer zones); type: in vivo
Description: To investigate further the activity of G-CSF on tumor development using a genetic mouse model, transgenic mice expressing human cMyc under the ARR2/probasin promoter expressed specifically in the prostate (hereafter cMyc mice) were evaluated. This transgenic model leads to the complete penetrance of mouse prostatic intraepithelial neoplasia (mPIN) from postnatal week 2, progressing to invasive adenocarcinomas between 3 to 6 months of age (FIG. 2m). […] The development of invasive cancer was associated with a broad infiltration of NF-L+ neo-fibers by comparison with control animals (FIG. 2o). Thus, the increased tumor/normal epithelial cell proliferation following G-CSF administration is associated with (i.e., is correlated to) the development of new nerve fibers in the primary tumor. Accordingly, a method of treating cancer in a subject such as a human patient or non-human animal (e.g., non-human mammal) comprises administering a prophylactically or therapeutically effective amount of an inhibitor of NF-L+ neo-fibers. In some embodiments, the method comprises administering a prophylactically or therapeutically effective amount of an inhibitor of G-CSF.
as §3
To ascertain the role of sympathetic innervation in tumor initiation using a genetic model, the effect of chemical or surgical sympathectomy on prostate cancer in cMyc mice was evaluated. For this study, transgenic cMyc mice expressing human c-Myc under the ARR2/probasin promoter expressed specifically in the prostate (AAR2/Pbsn-MYC) were used. This transgenic model leads to the complete penetrance of mouse prostatic intraepithelial neoplasia (mPIN) from postnatal week 2, progressing to invasive adenocarcinomas between 3 to 6 months of age (FIG. 6e). To this end, mice were chemically sympathectomized one month prior to histological analyses.
Disease progression was monitored by bioluminescence scanner. […] Mice were sacrificed at week 10.

[3] = system: healthy prostate; assay: Healthy (tumor-free) prostate: nerve density, epithelial cell proliferation, apoptosis, Chrm1 expression; type: in vivo, mouse; conditions: 6OHDA; TUNEL
Description: as §1, §2
For apoptotic cell quantification, prostate sections were fixed with 4% paraformaldehyde (PFA) and stained with the Mebstain Apoptosis Kit according to manufacturer's recommendations (MBL International, Woburn, Mass.). Basement membranes were stained with a rat polyclonal anti-α2laminin antibody (Abcam) followed by Alexafluor647-conjugated goat anti-rat antibody (Molecular Probes).
Gene expression levels were analyzed from RNA extracted, using the TRIzol solution (Invitrogen, Carlsbad, Calif.), from PC-3, DU145, LNCaP cell lines or prostates from Balb/c nu/nu mice by quantitative real-time PCR, as described previously (Mendez-Ferrer, Nature, 452:442-447 (2008)).

[4] = system: PC-3luc cells; assay: PC-3luc cell proliferation / cytotoxicity in vitro (MTT); type: cell-based, human
Description: A cell proliferation assay was performed on human PC-3 prostate tumor cells after 96 hours of treatment by G-CSF at three different concentrations by comparison with human leukemic cells (HL-60 and U937). Cell proliferation was quantified by a cell viability assay using MTT (3-[4,5-dimethylthiazole-2-yl]-2,5-diphenyltetrazolium bromide (Sigma). The percentage of viable cells was calculated by comparing the optical density (OD) of the treated samples with those incubated with vehicle. Methods were carried out as described by Magnon, et al., Cancer Res, 65, 4353-61 (2005); incorporated herein by reference in its entirety.

[5] = Echocardiography cardiac function after carbachol; type: in vivo; conditions: carbachol four consecutive days; n = 4 mice
Description: For imaging, animals were anesthetized with a mixture of O2/1.5% isoflurane and then positioned ventral side up on the platform of the imaging system. ECG signal and respiratory rate were captured through the electrode pads on the advanced physiological monitoring unit and transmitted to the Vevo system for monitoring. Cardiac examinations were performed in two dimensional images using the parasternal long axis (PLAX) view in B-Mode with a 1MS550D 40 MHz probe. Two cineloops (300 frames/cineloop) were recorded per animal and then analyzed on two diastoles and two systoles per animal. The endocardial stroke volume and endocardial diastolic volume were determined to calculate the ejection fraction.

[6] = Intravital microscopy hemodynamic measurements after carbachol; type: in vivo, mice
Description: Centerline red blood cell velocities were measured for 10 venules and 10 arterioles in two independent experiments. Wall shear rates (γ) were calculated based on Poiseuille's law for a Newtonian fluid, γ=2.12 (8Vmean)/Dv or Da, where Dv and Da are the venular or arterial diameters, the mean blood flow velocity (Vmean) was estimated as VRBC/1.6, and 2.12 is a median empirical mean, correction factor obtained from actual velocity profiles measured in microvessels in vivo. The blood flow rate was calculated from the formula: Vmean π D^2/4.

[7] = one hour after carbachol injection, n = 10 vessels

NCCc1cc(O)c(O)cc1O [6OHDA, 6-hydroxydopamine]
TH+ neural fibers expressing NF-L (basal neural layer underneath prostate epithelium) ([1]; 6OHDA 100 and 250 mg/kg): specifically destroyed | NF-L and NF-H positive fibers (parasympathetic) surrounding epithelial cells ([1]; 6OHDA treatment): without affecting | metastases ([1]; 6OHDA-induced sympathectomy): did not yield any detectable metastases | development of the primary tumors ([1]; 6OHDA-induced sympathectomy, bioluminescence, TUNEL): dramatically prevented | percentage of mPIN ([2]; denervation at 1 month of age): significantly reduced | prevalence of mPIN and invasive cancer zones ([2]; sympathectomy two months or more after birth): not significantly altered | apoptosis of epithelial cells in the healthy prostate [3]: triggered in vivo apoptosis | direct cytotoxicity on tumor cells in vitro ([4]; 6OHDA, cultured PC-3luc cells): no direct cytotoxicity

C[N+](C)(C)CCOC(N)=O.[Cl-] [carbachol, carbamoylcholine chloride]
invasion of inguinal lymph nodes ([1]; carbachol alone, week 5): significantly enhanced | proliferation of PC-3luc cells orthotopically implanted into the prostate (Ki67) ([1]; carbachol injections): induced the proliferation | tumor cell dissemination to distant organs compared to the control group ([1]; carbachol, ex vivo bioluminescence): about 6 fold | primary tumors (ex vivo bioluminescence) ([1]; carbachol, five weeks post-grafting): depopulated | incidence of mPIN ([2]; carbachol into three-month-old mice): significantly increased | transition of neoplastic lesions to invasive carcinoma ([2]; carbachol, four months of age): accelerated | proliferation of PC-3luc cells in vitro ([4]; carbachol): did not induce any proliferation | Ejection fraction [5]: 65 ± 4% | Endocardial volume, diastole [5]: 34.4 ± 7.9 µL | Endocardial volume, systole [5]: 11.7 ± 3.0 µL | vascular hemodynamics ([6]; carbachol-treated mice): not altered | Arterioles Blood Flow rate [6, 7]: 1737 ± 148 nL/s | Arterioles Diameter [6, 7]: 38.1 ±0.8 μm | Arterioles RBC velocity [6, 7]: 2.47 ± 0.22 mm/sec | Arterioles Wall shear rate (g) [6, 7]: 698 ± 69 | Venules Blood Flow rate [6, 7]: 863 ± 128 nL/s | Venules Diameter [6, 7]: 33.7 ± 1.3 μm | Venules RBC velocity [6, 7]: 1.48 ± 0.19 mm/sec | Venules Wall shear rate (g) [6, 7]: 469 ± 59

CN1CCN(CC(=O)N2c3ccccc3C(=O)Nc3cccnc32)CC1 [pirenzepine]
distant metastases [1]: inhibited | carbachol-induced lymph node invasion ([1]; week 5): inhibited | carbachol-induced tumor cell proliferation (Ki67) ([1]; pirenzepine with carbachol): specifically blocked | carbachol-induced malignancy progression ([2]; pirenzepine with carbachol): completely inhibited

CN1[C@@H]2C[C@@H](OC(=O)[C@H](CO)c3ccccc3)C[C@H]1[C@@H]1O[C@@H]12 [scopolamine]
distant metastases [1]: inhibited | carbachol-induced lymph node invasion ([1]; week 5): inhibited
